# From article doi:10.1101/2020.06.11.145995v1 (biorxiv, 2020)
# Legend:
# Test in all cases: biochemical
# EGFR(L858R,T790M) = EGFR(L858R,T790M) (Homo sapiens, UniProt P00533, L858R/T790M); settings: read-out: CPT-1-70-1 (1uM) % control
# CSF1R-autoinhibited = CSF1R-autoinhibited (Homo sapiens, UniProt P07333); settings: read-out: CPT-1-70-1 (1uM) % control
# ERK3 = ERK3 (Homo sapiens, UniProt Q16659); settings: read-out: CPT-1-70-1 (1uM) % control
# EIF2AK1 = EIF2AK1 (Homo sapiens, UniProt Q9BQI3); settings: read-out: CPT-1-70-1 (1uM) % control
# Chain of EIF2AK1 (Q9BQI3 whole entry): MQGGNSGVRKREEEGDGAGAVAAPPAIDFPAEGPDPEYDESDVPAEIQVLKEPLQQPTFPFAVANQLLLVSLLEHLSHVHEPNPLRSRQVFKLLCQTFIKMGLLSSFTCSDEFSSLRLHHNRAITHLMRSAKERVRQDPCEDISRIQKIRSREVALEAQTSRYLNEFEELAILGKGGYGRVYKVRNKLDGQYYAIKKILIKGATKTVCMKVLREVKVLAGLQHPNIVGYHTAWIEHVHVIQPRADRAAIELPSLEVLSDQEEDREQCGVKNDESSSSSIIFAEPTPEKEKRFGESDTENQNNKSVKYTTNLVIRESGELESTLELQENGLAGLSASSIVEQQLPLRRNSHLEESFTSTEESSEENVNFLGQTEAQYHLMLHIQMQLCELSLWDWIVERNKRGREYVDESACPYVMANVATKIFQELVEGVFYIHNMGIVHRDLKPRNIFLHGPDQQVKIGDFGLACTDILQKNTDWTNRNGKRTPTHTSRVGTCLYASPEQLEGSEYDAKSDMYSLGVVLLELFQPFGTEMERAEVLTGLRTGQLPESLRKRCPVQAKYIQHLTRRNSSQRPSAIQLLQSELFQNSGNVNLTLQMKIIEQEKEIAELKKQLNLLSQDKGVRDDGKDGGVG
# EPHA4 = EPHA4 (Homo sapiens, UniProt P54764); settings: read-out: CPT-1-70-1 (1uM) % control
# ERK1 = ERK1 (Homo sapiens, UniProt P27361); settings: read-out: CPT-1-70-1 (1uM) % control
# Chain of ERK1 (P27361 whole entry): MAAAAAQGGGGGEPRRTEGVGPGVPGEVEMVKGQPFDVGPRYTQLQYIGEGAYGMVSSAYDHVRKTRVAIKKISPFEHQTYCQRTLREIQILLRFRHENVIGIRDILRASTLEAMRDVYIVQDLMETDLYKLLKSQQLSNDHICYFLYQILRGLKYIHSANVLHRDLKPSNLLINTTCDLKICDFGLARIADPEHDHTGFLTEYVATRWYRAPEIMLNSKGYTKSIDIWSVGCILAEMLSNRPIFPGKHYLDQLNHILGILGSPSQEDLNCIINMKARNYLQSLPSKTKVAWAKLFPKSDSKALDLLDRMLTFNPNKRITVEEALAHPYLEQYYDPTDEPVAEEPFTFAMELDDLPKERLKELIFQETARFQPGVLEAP
# HASPIN = HASPIN (Homo sapiens, UniProt Q8TF76); settings: read-out: CPT-1-70-1 (1uM) % control
# Chain of HASPIN (Q8TF76 whole entry): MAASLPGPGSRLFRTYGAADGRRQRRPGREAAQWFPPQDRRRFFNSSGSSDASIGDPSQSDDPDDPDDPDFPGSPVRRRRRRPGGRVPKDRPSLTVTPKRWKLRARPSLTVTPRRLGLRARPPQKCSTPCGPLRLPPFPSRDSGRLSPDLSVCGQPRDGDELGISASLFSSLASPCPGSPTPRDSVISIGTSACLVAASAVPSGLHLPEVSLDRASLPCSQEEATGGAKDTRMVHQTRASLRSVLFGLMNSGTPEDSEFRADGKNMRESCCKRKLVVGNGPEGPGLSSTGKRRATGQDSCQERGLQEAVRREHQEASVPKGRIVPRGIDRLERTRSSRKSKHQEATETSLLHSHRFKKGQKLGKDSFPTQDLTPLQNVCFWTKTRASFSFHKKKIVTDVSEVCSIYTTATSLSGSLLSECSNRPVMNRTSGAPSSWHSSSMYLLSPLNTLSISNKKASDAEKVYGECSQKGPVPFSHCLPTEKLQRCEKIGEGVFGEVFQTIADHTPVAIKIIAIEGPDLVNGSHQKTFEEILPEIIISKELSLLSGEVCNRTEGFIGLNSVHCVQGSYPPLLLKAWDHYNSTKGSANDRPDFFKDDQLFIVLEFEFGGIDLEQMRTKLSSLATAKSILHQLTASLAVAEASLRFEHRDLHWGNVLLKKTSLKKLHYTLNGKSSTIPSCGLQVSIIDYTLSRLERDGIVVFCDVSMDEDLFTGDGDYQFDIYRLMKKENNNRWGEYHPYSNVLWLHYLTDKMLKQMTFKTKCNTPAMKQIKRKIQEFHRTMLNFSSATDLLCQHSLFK
# BUB1 = BUB1 (Homo sapiens, UniProt O43683); settings: read-out: CPT-1-70-1 (1uM) % control
# EPHA8 = EPHA8 (Homo sapiens, UniProt P29322); settings: read-out: CPT-1-70-1 (1uM) % control
# EPHB6 = EPHB6 (Homo sapiens, UniProt O15197); settings: read-out: CPT-1-70-1 (1uM) % control
# EPHB2 = EPHB2 (Homo sapiens, UniProt P29323); settings: read-out: CPT-1-70-1 (1uM) % control
# ERBB3 = ERBB3 (Homo sapiens, UniProt P21860); settings: read-out: CPT-1-70-1 (1uM) % control
# ERBB2 = ERBB2 (Homo sapiens, UniProt P04626); settings: read-out: CPT-1-70-1 (1uM) % control
# EPHB3 = EPHB3 (Homo sapiens, UniProt P54753); settings: read-out: CPT-1-70-1 (1uM) % control
# EGFR(T790M) = EGFR(T790M) (Homo sapiens, UniProt P00533, T790M); settings: read-out: CPT-1-70-1 (1uM) % control
# EPHA5 = EPHA5 (Homo sapiens, UniProt P54756); settings: read-out: CPT-1-70-1 (1uM) % control
# Chain of EPHA5 (P54756 whole entry): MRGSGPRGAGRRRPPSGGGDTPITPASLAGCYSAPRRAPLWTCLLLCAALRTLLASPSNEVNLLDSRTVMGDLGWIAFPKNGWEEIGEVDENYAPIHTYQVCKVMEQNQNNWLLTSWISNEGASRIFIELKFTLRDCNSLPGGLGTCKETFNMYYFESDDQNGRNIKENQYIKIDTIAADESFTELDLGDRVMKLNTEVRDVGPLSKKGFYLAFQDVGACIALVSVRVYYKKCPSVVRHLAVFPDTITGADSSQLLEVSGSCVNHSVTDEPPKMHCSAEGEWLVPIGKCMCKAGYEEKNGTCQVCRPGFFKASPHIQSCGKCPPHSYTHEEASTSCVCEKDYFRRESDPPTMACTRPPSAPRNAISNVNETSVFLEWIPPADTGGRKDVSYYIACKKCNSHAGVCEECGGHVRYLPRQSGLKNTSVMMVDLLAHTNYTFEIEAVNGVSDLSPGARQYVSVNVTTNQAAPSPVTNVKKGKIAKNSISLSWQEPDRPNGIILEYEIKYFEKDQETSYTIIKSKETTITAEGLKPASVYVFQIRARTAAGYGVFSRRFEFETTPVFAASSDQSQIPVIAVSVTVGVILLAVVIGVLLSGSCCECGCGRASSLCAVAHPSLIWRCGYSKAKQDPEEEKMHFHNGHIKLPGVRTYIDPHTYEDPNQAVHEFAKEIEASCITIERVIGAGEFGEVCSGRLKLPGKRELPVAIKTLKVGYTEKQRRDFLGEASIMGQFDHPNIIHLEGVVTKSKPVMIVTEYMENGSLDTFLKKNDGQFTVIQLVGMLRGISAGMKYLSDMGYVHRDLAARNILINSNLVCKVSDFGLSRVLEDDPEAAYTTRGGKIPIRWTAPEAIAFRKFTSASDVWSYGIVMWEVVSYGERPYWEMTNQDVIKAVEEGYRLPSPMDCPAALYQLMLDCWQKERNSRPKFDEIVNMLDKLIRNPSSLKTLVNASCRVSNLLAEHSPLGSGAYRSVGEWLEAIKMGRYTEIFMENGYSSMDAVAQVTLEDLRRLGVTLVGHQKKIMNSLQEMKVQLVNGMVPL
# EPHA3 = EPHA3 (Homo sapiens, UniProt P29320); settings: read-out: CPT-1-70-1 (1uM) % control
# EPHB1 = EPHB1 (Homo sapiens, UniProt P54762); settings: read-out: CPT-1-70-1 (1uM) % control
# ERK4 = ERK4 (Homo sapiens, UniProt P31152); settings: read-out: CPT-1-70-1 (1uM) % control
# ERBB4 = ERBB4 (Homo sapiens, UniProt Q15303); settings: read-out: CPT-1-70-1 (1uM) % control
# EPHA1 = EPHA1 (Homo sapiens, UniProt P21709); settings: read-out: CPT-1-70-1 (1uM) % control
# ERK2 = ERK2 (Homo sapiens, UniProt P28482); settings: read-out: CPT-1-70-1 (1uM) % control
# ALK(C1156Y) = ALK(C1156Y) (Homo sapiens, UniProt Q9UM73, C1156Y); settings: read-out: CPT-1-70-1 (1uM) % control
# EPHA2 = EPHA2 (Homo sapiens, UniProt P29317); settings: read-out: CPT-1-70-1 (1uM) % control
# ERK5 = ERK5 (Homo sapiens, UniProt Q13164); settings: read-out: CPT-1-70-1 (1uM) % control
# EPHB4 = EPHB4 (Homo sapiens, UniProt P54760); settings: read-out: CPT-1-70-1 (1uM) % control
# PKNB(M.tuberculosis) = PKNB(M.tuberculosis) (Mycobacterium tuberculosis, UniProt P9WI81); settings: read-out: CPT-1-70-1 (1μM) % control
# [1] = molecular target: ABL1(E255K)-phosphorylated (Homo sapiens, UniProt P00519, E255K); settings: read-out: CPT-1-70-1 (1μM) % control
# KIT(V559D,T670I) = KIT(V559D,T670I) (Homo sapiens, UniProt P10721, T670I/V559D); settings: read-out: CPT-1-70-1 (1uM) % control
# Chain of KIT(V559D,T670I) (P10721 whole entry V559D/T670I): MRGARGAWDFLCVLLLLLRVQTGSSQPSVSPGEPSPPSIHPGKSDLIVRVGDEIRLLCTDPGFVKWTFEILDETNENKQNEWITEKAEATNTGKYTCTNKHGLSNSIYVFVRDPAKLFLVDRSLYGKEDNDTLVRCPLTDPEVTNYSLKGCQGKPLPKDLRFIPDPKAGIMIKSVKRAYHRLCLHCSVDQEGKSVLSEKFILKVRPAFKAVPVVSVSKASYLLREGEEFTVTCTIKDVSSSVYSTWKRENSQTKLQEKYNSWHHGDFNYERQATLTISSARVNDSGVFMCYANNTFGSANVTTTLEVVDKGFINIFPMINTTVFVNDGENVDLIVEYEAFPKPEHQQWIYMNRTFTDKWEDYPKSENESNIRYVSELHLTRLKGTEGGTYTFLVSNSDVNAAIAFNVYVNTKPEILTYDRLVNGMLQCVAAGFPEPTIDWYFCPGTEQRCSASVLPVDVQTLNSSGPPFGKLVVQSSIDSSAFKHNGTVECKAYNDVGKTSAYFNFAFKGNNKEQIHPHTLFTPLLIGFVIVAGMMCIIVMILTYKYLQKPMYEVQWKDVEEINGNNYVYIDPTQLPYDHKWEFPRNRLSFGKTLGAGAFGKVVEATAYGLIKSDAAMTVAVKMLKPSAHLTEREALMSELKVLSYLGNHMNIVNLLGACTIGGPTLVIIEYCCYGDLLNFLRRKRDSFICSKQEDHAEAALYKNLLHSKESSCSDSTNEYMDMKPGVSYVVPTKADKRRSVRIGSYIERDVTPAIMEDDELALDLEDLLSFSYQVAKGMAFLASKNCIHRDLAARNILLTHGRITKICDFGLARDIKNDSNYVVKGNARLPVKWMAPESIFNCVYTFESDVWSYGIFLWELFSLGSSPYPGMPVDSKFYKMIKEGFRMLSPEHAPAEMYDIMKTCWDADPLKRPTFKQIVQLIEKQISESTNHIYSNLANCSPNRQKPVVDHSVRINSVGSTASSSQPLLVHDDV
# Chain of EGFR(L858R,T790M) (P00533 whole entry T790M/L858R): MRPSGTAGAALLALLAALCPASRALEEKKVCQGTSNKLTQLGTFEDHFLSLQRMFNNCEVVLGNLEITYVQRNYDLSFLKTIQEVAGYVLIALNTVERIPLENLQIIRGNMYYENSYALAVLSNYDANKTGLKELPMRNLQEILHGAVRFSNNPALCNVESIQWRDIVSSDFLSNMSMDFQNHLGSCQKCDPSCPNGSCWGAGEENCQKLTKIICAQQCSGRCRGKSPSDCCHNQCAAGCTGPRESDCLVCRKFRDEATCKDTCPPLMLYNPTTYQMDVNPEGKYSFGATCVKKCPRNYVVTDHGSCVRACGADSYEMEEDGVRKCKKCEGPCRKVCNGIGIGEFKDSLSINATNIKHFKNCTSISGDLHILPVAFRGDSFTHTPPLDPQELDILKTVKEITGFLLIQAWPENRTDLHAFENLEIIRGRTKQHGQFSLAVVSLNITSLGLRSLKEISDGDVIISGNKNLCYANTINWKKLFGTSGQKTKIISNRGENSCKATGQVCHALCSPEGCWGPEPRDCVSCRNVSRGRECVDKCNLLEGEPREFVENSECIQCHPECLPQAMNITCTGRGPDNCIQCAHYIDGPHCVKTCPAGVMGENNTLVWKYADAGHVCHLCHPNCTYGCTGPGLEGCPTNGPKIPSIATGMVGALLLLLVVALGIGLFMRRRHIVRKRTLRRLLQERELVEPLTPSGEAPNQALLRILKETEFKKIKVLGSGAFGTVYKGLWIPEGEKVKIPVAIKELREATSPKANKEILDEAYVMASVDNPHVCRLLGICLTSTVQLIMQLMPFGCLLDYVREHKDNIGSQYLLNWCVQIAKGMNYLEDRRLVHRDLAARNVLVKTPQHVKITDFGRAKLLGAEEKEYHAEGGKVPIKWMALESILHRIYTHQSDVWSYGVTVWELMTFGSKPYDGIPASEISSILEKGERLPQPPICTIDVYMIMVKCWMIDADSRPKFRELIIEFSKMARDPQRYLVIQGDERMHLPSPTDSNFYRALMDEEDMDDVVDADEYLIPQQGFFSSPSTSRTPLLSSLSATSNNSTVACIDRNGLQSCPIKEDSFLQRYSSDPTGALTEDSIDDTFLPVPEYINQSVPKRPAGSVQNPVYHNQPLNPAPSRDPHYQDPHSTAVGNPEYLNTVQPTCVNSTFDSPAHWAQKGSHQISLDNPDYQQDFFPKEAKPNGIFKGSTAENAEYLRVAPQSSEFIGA
compound,measurement,setting,value
CN1CCN(c2ccc(Nc3nc(Oc4ccc(NC(=O)CCl)cc4)c4cc[nH]c4n3)cc2)CC1 [CPT1-70-1],remaining activity at 1 µM,"EGFR(L858R,T790M)",0.35%
same,remaining activity at 1 µM,CSF1R-autoinhibited,1.4%
same,remaining activity at 1 µM,ERK3,1%
same,remaining activity at 1 µM,EIF2AK1,100%
same,remaining activity at 1 µM,EPHA4,94%
same,remaining activity at 1 µM,ERK1,100%
same,remaining activity at 1 µM,HASPIN,100%
same,remaining activity at 1 µM,BUB1,85%
same,remaining activity at 1 µM,EPHA8,53%
same,remaining activity at 1 µM,EPHB6,44%
same,remaining activity at 1 µM,EPHB2,100%
same,remaining activity at 1 µM,ERBB3,53%
same,remaining activity at 1 µM,ERBB2,57%
same,remaining activity at 1 µM,EPHB3,100%
same,remaining activity at 1 µM,EGFR(T790M),0.8%
same,remaining activity at 1 µM,EPHA5,100%
same,remaining activity at 1 µM,EPHA3,100%
same,remaining activity at 1 µM,EPHB1,84%
same,remaining activity at 1 µM,ERK4,96%
same,remaining activity at 1 µM,ERBB4,4.6%
same,remaining activity at 1 µM,EPHA1,79%
same,remaining activity at 1 µM,ERK2,100%
same,remaining activity at 1 µM,ALK(C1156Y),52%
same,remaining activity at 1 µM,EPHA2,96%
same,remaining activity at 1 µM,ERK5,87%
same,remaining activity at 1 µM,EPHB4,100%
same,remaining activity at 1 µM,PKNB(M.tuberculosis),58%
same,remaining activity at 1 µM,[1],90%
same,remaining activity at 1 µM,"KIT(V559D,T670I)",28%
